Series [1] deals with PC-3 prostate cancer cell line. Kind of series: MTT cell viability assay, PC-3. It is filed as cell-based. To be noted: Homo sapiens, treatment 72 h and 96 h, mean ± SD of three experiments. The procedure:
(§1) The human HCT116 colon cancer cell line and PC-3 prostate cancer cell line were obtained from the American Type Cell Culture (ATCC, Bethesda, Md). Both cell lines were grown in 75 cm^2 culture flasks at 37 °C in 5% CO2 using Roswell Park Memorial Institute 1640 medium (RPMI 1640, Gibco) and Dulbecco’s modified Eagle’s medium F/12 (DMEM/F-12, Gibco), respectively, containing 10% fetal bovine serum (FBS, Gibco). To test the inhibitory activities of compounds using a cell-based assay, MTT assay was performed for cell viability, as described previously. Briefly, HCT116 cells were plated at a density of 1500 per well, while PC-3 cells were plated at a density of 750 per well in a 96-well plate. After 24 h, cells were treated with the indicated compounds in a dose-dependent manner for 72 h and 96 h (all tested compounds provided clear solutions). MTT [3-(4,5-dimethylthiazol-2-yl)-2,5-diphenyltetrazolium bromide] (Sigma M-5655) was added at a final concentration of 0.5 mg/mL directly to each well for 4 h at 37 °C. The medium was aspirated, and the blue MTT formazan precipitate was dissolved in dimethyl sulfoxide (DMSO). Absorbance was determined in a Powerwave microplate spectrophotometer (Biotek Instruments, Inc.) at 540 nm. Viable cell numbers were determined by tetrazolium conversion to its formazan dye. The IC50 was calculated by Microsoft Excel equation and confirmed by GraphPad Prism (7.0). Each experiment was performed in triplicate and mean values ± SD are reported.
For orientation: Tetrazolium assays rely on reduction of a dye to a coloured formazan, in cell work by metabolically active cells.

In series [2] the test system is HCT116 colon cancer cell line. Kind of series: MTT cell viability assay, HCT116. Conditions: Homo sapiens, HCT-116, treatment 72 h and 96 h, mean ± SD of three experiments. It counts as cell-based. As for the experimental part: as §1
Series [3] has as its system normal human fibroblasts (WI-38). Kind of series: MTT cytotoxicity towards normal fibroblasts. It is filed as cell-based. To be noted: WI-38; for IC50: MTT, normal human fibroblasts. As for the experimental part:
as §1
Figure 1 Dose-response curves for the administration of 14b, 26b, 35b on HCT116, PC-3 and WI-38 cells, as assessed by the MTT assay. Results are expressed as a percentage of controls. Statistical analysis was performed in triplicate determination at p < 0.05.

With `COc1ccc(Cn2cc(-c3ccccc3)c3ccnc(Nc4ccccc4)c32)cc1` [10a, 1-(4-Methoxybenzyl)-Ν,3-diphenyl-1H-pyrrolo[2,3-c]pyridin-7-amine], the melting point was in the range of 180 to 181 °C. In series [1], the 50% inhibitory concentration (IC50) was more than 10 µM. This compound also showed an IC50 in series [2] of 2.4 ± 0.1 µM.
Consider `COc1cc(Nc2nccc3c(-c4ccccc4)c[nH]c23)cc(OC)c1OC` [14c, N-(3,4,5-trimethoxyphenyl)-3-phenyl-1H-pyrrolo[2,3-c]pyridin-7-amine], for which the melting point is 153 to 154 °C. Moreover, the IC50 in series [1] is 0.47 ± 0.12 µM. In series [2], the IC50 stood at 0.72 ± 0.09 µM. For the same compound, the half-maximal inhibitory concentration (IC50) in series [3] was less than 10 µM.
On to `CN1CCN(c2ncnc3c(-c4cccc(F)c4)n[nH]c23)CC1` [35f, 3-(3-Fluorophenyl)-7-(4-methylpiperazin-1-yl)-1H-pyrazolo[4,3-d]pyrimidine], for which the IC50 in series [1] and in series [2] was more than 10 µM in each case.
Regarding `CN1CCN(c2nccc3c(-c4ccccc4)c[nH]c23)CC1` [14e, 7-(4-Methylpiperazin-1-yl)-3-phenyl-1H-pyrrolo[2,3-c]pyridine], the melting point is 220 to 221 °C. In series [1], the IC50 was 1.75 ± 0.25 µM. For the same compound, the midpoint of inhibition in series [2], the IC50, lay at 2.85 ± 0.05 µM. For the same compound, the IC50 in series [3] was less than 10 µM.
In turn, `COc1cc(Nc2ncnc3c(-c4ccccc4)n[nH]c23)cc(OC)c1OC` [35c, 3-Phenyl-N-(3,4,5-trimethoxyphenyl)-1H-pyrazolo[4,3-d]pyrimidin-7-amine] registered a melting point of more than 250 °C. The IC50 in series [1] stood at 5.7 ± 0.4 µM. In series [2], this compound had an IC50 of 4.7 ± 0.25 µM.
For `COc1ccc(Cn2cc(-c3ccccc3)c3ccnc(N4CCN(C)CC4)c32)cc1` [13a, 1-(4-Methoxybenzyl)-7-(4-methylpiperazin-1-yl)-3-phenyl-1H-pyrrolo[2,3-c]pyridine], in that order: 88 to 89 °C, 7 ± 0.4 µM and 5 ± 0.18 µM.
Turning to `c1ccc(Nc2nccc3c(-c4ccccc4)c[nH]c23)cc1` [14a, Ν,3-Diphenyl-1H-pyrrolo[2,3-c]pyridin-7-amine], the melting point fell in the range of 139 to 140 °C. In series [1], the IC50 was 0.215 ± 0.025 µM. Also, in series [2], half-maximal inhibition (IC50) was put at 5 ± 0.1 µM. Moreover, in series [3], the “cytotoxicity to normal cells in words” value is “rather cytotoxic to normal cells” and the IC50 is less than 10 µM.
Turning to `c1ccc(Nc2ncnc3c(-c4ccccc4)n[nH]c23)cc1` [35a, N,3-Diphenyl-1H-pyrazolo[4,3-d]pyrimidin-7-amine], the values for the concentration for half-maximal inhibition (IC50) in series [1] and in series [2] were 4.7 ± 0.18 µM and 7.3 ± 0.62 µM, respectively.
Take `COc1ccc(Cn2cc(-c3ccccc3)c3ncnc(N4CCN(C)CC4)c32)cc1` [25a, 5-(4-Methoxybenzyl)-4-(4-methylpiperazin-1-yl)-7-phenyl-5H-pyrrolo[3,2-d]pyrimidine]: the melting point fell in the range of 150 to 151 °C. Further, the IC50 in series [1] is more than 10 µM. This compound had a 50% inhibitory concentration (IC50) in series [2] of more than 10 µM.
Turning to `COc1cc(Nc2nccc3c(-c4cccc(F)c4)c[nH]c23)cc(OC)c1OC` [14d, 3-(3-Fluorophenyl)-N-(3,4,5-trimethoxyphenyl)-1H-pyrrolo[2,3-c]pyridin-7-amine], the melting point lay within 149 to 150 °C. The midpoint of inhibition in series [1], the IC50, lay at 1.45 ± 0.25 µM. Further, in series [2], it took 3.9 ± 0.3 µM to reach half-maximal inhibition (IC50). This compound registered a concentration for half-maximal inhibition (IC50) in series [3] of less than 10 µM.
`COc1ccc(Cn2cc(-c3ccccc3)c3ccnc(Nc4cc(OC)c(OC)c(OC)c4)c32)cc1` [10c, 1-(4-Methoxybenzyl)-Ν-(3,4,5-trimethoxyphenyl)-3-phenyl-1H-pyrrolo[2,3-c]pyridin-7-amine] returned a melting point of 136 to 137 °C. Also, the IC50 in series [1] turned out to be 9.8 ± 0.25 µM. The compound also had an IC50 in series [2] of 9.4 ± 0.53 µM.
For `CN1CCN(c2nccc3c(-c4cccc(F)c4)c[nH]c23)CC1` [14f, 3-(3-Fluorophenyl)-7-(4-methylpiperazin-1-yl)-1H-pyrrolo[2,3-c]pyridine], in that order: 209 to 210 °C, 2.35 ± 0.05 µM and 2.35 ± 0.15 µM.
In the same order, the values of `COc1ccc(Cn2cc(-c3cccc(F)c3)c3ncnc(Nc4cc(OC)c(OC)c(OC)c4)c32)cc1` [24d, 7-(3-Fluorophenyl)-5-(4-methoxybenzyl)-N-(3,4,5-trimethoxyphenyl)-5H-pyrrolo[3,2-d]pyrimidin-4-amine] are 96 to 97 °C, more than 10 µM and more than 10 µM.
For `CN1CCN(c2ncnc3c(-c4ccccc4)c[nH]c23)CC1` [26e, 4-(4-Methylpiperazin-1-yl)-7-phenyl-5H-pyrrolo[3,2-d]pyrimidine], in that order: more than 250 °C, more than 10 µM and more than 10 µM.
`CN1CCN(c2ncnc3c(-c4ccccc4)n[nH]c23)CC1` [35e, 7-(4-Methylpiperazin-1-yl)-3-phenyl-1H-pyrazolo[4,3-d]pyrimidine]: the 50% inhibitory concentration (IC50) in series [1] and in series [2] was more than 10 µM in each case.
As for `COc1ccc(Cn2cc(-c3cccc(F)c3)c3ncnc(Nc4ccccc4)c32)cc1` [24b, 7-(3-Fluorophenyl)-5-(4-methoxybenzyl)-Ν-phenyl-5H-pyrrolo[3,2-d]pyrimidin-4-amine], the melting point lay within 131 to 132 °C. In series [1], this compound showed a 50% inhibitory concentration (IC50) of more than 10 µM. For the same compound, in series [2], the IC50 was more than 10 µM.
In the case of `c1ccc(Nc2ncnc3c(-c4ccccc4)c[nH]c23)cc1` [26a, Ν,7-Diphenyl-5H-pyrrolo[3,2-d]pyrimidin-4-amine], the melting point is more than 250 °C. The 50% inhibitory concentration (IC50) in series [1] is 6.2 ± 0.23 µM. Further, in series [2], the IC50 was found to be 2.75 ± 0.35 µM.
For `COc1ccc(Cn2cc(-c3cccc(F)c3)c3ncnc(N4CCN(C)CC4)c32)cc1` [25b, 7-(3-Fluorophenyl)-5-(4-methoxybenzyl)-4-(4-methylpiperazin-1-yl)-5H-pyrrolo[3,2-d]pyrimidine], in that order: 151 to 152 °C, more than 10 µM and more than 10 µM.
For `COc1cc(Nc2ncnc3c(-c4cccc(F)c4)n[nH]c23)cc(OC)c1OC` [35d, 3-(3-Fluorophenyl)-N-(3,4,5-trimethoxyphenyl)-1H-pyrazolo[4,3-d]pyrimidin-7-amine], in that order: more than 250 °C, more than 10 µM and more than 10 µM.
On to `COc1ccc(Cn2cc(-c3cccc(F)c3)c3ccnc(N4CCN(C)CC4)c32)cc1` [13b, 3-(3-Fluorophenyl)-1-(4-methoxybenzyl)-7-(4-methylpiperazin-1-yl)-1H-pyrrolo[2,3-c]pyridine], for which the IC50 was 9.3 ± 0.76 µM in series [1] and 4.4 ± 0.35 µM in series [2].
With `COc1ccc(Cn2cc(-c3ccccc3)c3ncnc(Nc4ccccc4)c32)cc1` [24a, 5-(4-Methoxybenzyl)-Ν,7-diphenyl-5H-pyrrolo[3,2-d]pyrimidin-4-amine], the melting point was 57 to 58 °C. Moreover, in series [1], the IC50 is more than 10 µM. This compound also gave an IC50 in series [2] of more than 10 µM.
Consider `CN1CCN(c2ncnc3c(-c4cccc(F)c4)c[nH]c23)CC1` [26f, 7-(3-Fluorophenyl)-4-(4-methylpiperazin-1-yl)-5H-pyrrolo[3,2-d]pyrimidine], for which the concentration for half-maximal inhibition (IC50) in series [1] and in series [2] was more than 10 µM in each case.
Turning to `COc1ccc(Cn2cc(-c3ccccc3)c3ncnc(Nc4cc(OC)c(OC)c(OC)c4)c32)cc1` [24c, 5-(4-Methoxybenzyl)-N-(3,4,5-trimethoxyphenyl)-7-phenyl-5H-pyrrolo[3,2-d]pyrimidin-4-amine], the melting point lay within 187 to 188 °C. In series [1], this compound showed a half-inhibitory concentration (IC50) of 2.25 ± 0.35 µM. In series [2], this compound showed a concentration for half-maximal inhibition (IC50) of 4.5 ± 0.25 µM.
Compound `COc1cc(Nc2ncnc3c(-c4cccc(F)c4)c[nH]c23)cc(OC)c1OC` [26d, 7-(3-Fluorophenyl)-N-(3,4,5-trimethoxyphenyl)-5H-pyrrolo[3,2-d]pyrimidin-4-amine] displayed a melting point of 139 to 140 °C. 5.9 ± 0.37 µM corresponded to half-maximal inhibition in series [1] (IC50). Further, the IC50 in series [2] turned out to be 8.7 ± 0.58 µM.
For `COc1ccc(Cn2cc(-c3cccc(F)c3)c3ccnc(Nc4ccccc4)c32)cc1` [10b, 3-(3-Fluorophenyl)-1-(4-methoxybenzyl)-Ν-phenyl-1H-pyrrolo[2,3-c]pyridin-7-amine], in that order: 165 to 166 °C, more than 10 µM and more than 10 µM.
In the same order, the values of `COc1cc(Nc2ncnc3c(-c4ccccc4)c[nH]c23)cc(OC)c1OC` [26c, N-(3,4,5-Trimethoxyphenyl)-7-phenyl-5H-pyrrolo[3,2-d]pyrimidin-4-amine] are more than 250 °C, 9.7 ± 0.5 µM and 7.8 ± 0.45 µM.
Take `COc1ccc(Cn2cc(-c3cccc(F)c3)c3ccnc(Nc4cc(OC)c(OC)c(OC)c4)c32)cc1` [10d, 3-(3-Fluorophenyl)-1-(4-methoxybenzyl)-Ν-(3,4,5-trimethoxyphenyl)-1H-pyrrolo[2,3-c]pyridin-7-amine]: the melting point was 93 to 94 °C. The same compound registered an IC50 in series [1] of more than 10 µM. In addition, the IC50 in series [2] was more than 10 µM.

By IC50 is commonly meant the point on the concentration scale where inhibition reaches its midpoint. Low values mean higher potency, high ones lower potency. The term melting point denotes the temperature, or range, at which the solid turns liquid.

The record behind these values is article PMC8746528, “Novel Substituted Purine Isosteres: Synthesis, Structure-Activity Relationships and Cytotoxic Activity Evaluation” (Molecules, 2021).
